Measured values from patent publication US11419834B2, “Methods for treating diseases or infections caused by or associated with H. pylori using a halogenated salicylanilide” (Rhode Island Hospital, priority 2019, dated 2022).
Converted amounts (≈) assume the structure as drawn. Read-outs that look alike come from different tables or passages of the source.

Experiments:
H. Pylori 43504 = assay: Broth microdilution assay, MIC; format: cell-based; conditions: Helicobacter pylori; strain H. Pylori 43504
H. pylori bacteria = assay: Scanning electron microscopy of morphology; format: cell-based, Helicobacter pylori
H. Pylori 49503 = assay: Broth microdilution assay, MIC; format: cell-based; conditions: Helicobacter pylori; strain H. Pylori 49503
[1] = test system: IL-8 secretion from MKN-28 cells co-cultured with H. pylori; assay: IL-8 secretion, real-time RT-PCR; format: cell-based; conditions: 10× MIC, H. pylori infected MKN-28 cells
Procedure: Real-Time (RT-PCR) was carried out to determine whether niclosamide has an inhibitory role in IL-8 secretion. MKN-28 cells were co-cultured with H. pylori (MOI=100) in the presence or absence of a test compound. At 24 hours, RNA was isolated from the infected host cells. cDNA was synthesized using the Verso cDNA (Invitrogen) synthesis kit according to manufacturer instructions. Quantitative real-time reactions were carried out in a Bio-Rad iTaq universal SYBR (Bio-Rad, Hercules, Calif. USA) one-step kit and a CFX98 real-time PCR cycler as described by Zheng et al. (Future Med. Chem. 2018, February; 10(3):283-296). The relative gene expression was calculated from Cq values using a ΔΔCq method.

H. Pylori 51932 = assay: Broth microdilution assay, MIC; format: cell-based; conditions: Helicobacter pylori; strain H. Pylori 51932
[2] = test system: H. pylori reference strain 60190 (ATCC 49503); assay: Broth microdilution assay, MIC; format: cell-based; conditions: Helicobacter pylori, ATCC49503, 72 h; H. pylori strain 60190; Müller-Hinton broth + 10% FBS, 3 days
[3] = test system: AGS cells invaded by H. pylori; assay: Invasion, gentamicin protection assay; format: cell-based, Helicobacter pylori; conditions: 0.1 μg/mL, 20 hours, AGS cells
Procedure: (§1) The AGS (Gastric adenocarcinoma cell lines) cell line was used to examine inhibition of adhesion and invasion of H. pylori (strain 60190) by niclosamide, as described by Schmitt et al. (Front Cell Infect Microbiol. 2013; 3:93). The AGS cells were grown in Dulbecco's Modified Eagle Medium (DMEM, ex. Gibco), supplemented with 10% fetal bovine serum (Gibco) and 1% penicillin/streptomycin (Gibco) and maintained at 37° C. in 5% C02. Then, 5×10^5 cells in antibiotic and serum-free DMEM were seeded in 6-well plates 24 hours prior to infection. H. pylori bacteria at a multiplicity of infection (MOI)=100 were added and allowed to adhere to the surface of the AGS cells. Planktonic bacteria were removed after 2 hours and DMEM with niclosamide (2×MIC) was then added to the wells containing the AGS. The mammalian cells were lysed by 0.1% saponin after 20 hours of incubation and the adhered bacteria were then serially diluted, plated in Brucella agar supplemented with 10% FBS, and incubated as described above. A control arm of DMSO and a comparator using amoxicillin at a concentration of 0.1 μg/mL (10×MIC) was also assessed. […]

H. pylori strain 60190 = assay: Minimum bactericidal concentration (plating from MIC assay); format: cell-based, Helicobacter pylori
H. pylori (strain 60190) [4] = assay: Checkerboard synergy assay (FICI); format: cell-based, Helicobacter pylori; conditions: for FICI value Niclosamide: test compound in combination with niclosamide
Procedure: References to “synergy” of the halogenated salicylanilide with other therapeutic agents described herein refer to an activity which is greater than the sum of the individual agents used alone. The degree of antimicrobial synergy may be assessed by calculating the fractional inhibitory concentration index (FICI) using the checkerboard assay described in the Examples herein. For two agents A and B, the FICI is calculated as: FICI=MICA-B in combination/(MICA alone+MICB alone) Synergy occurs when the FICI is ≤0.5; partial synergy for 0.5≤FICI≤1.0; no interaction […]; and antagonism FICI >4.0.
Antibacterial synergy was tested using the checkerboard assay using the method described in Zheng Z et al. (Antimicrob. Agents Chemother. 2017 July; 61(7)).
Niclosamide was combined with antibiotics and proton pump inhibitors (PPIs). Cultures of H. pylori (strain 60190) were adjusted to OD600=0.06 and added to compound pairs that had been serially diluted in the same 96-well plates, vertically for one compound and horizontally for the other. Assays were carried out in triplicate as described in the antibacterial susceptibility assay described above. The combinatorial inhibitory concentration was indicated by the fractional inhibitory concentration index (FICI): FICI=MICA combination/MICA alone+MICB combination/MICB alone Paired combinations of compounds and their observed FICI are listed in Table 4. Synergistic activity, where the combined antibacterial effect of the 2 antimicrobial agents is more than the sum of their effects alone, is defined by FICI 0.5, antagonism by FICI >4.0 and ‘no interaction’ by FICI >0.5-4.0.

[5] = test system: H. pylori bacteria (strain 60190); assay: Multi-step mutation frequency (serial passage resistance study); format: cell-based, Helicobacter pylori; conditions: for increase in MIC during continuous passage: passaged sequentially over 30 days
Procedure: To determine whether H. pylori can develop resistance against niclosamide, bacterial cells were suspended in MHB with 10% FBS at OD600=0.06 in the presence of serially diluted niclosamide and incubated, as described in the antibiotic susceptibility assays sub-section. The standard antibiotics amoxicillin and clarithromycin were used as controls. From the highest drug concentration allowing visible growth at sub-MIC concentration, aliquots were diluted (1:40) into fresh medium. These were used to inoculate the second set of serial drug dilutions as described by Dalhoff et al. (Clin Infect Ds. 2001 Mar. 15; 32 Suppl, 1:S16-22). After a 3-day incubation, H. pylori bacteria (strain 60190) were passaged sequentially over 30 days and the OD was recorded.

H. pylori (strain 60190) [6] = assay: Effect of pH on MIC (broth microdilution); format: cell-based, Helicobacter pylori; conditions: pH 7.0 to 5.2
Procedure: The pH was adjusted to acidic condition with 1 N HCl. The minimal bactericidal concentration (MBC) was determined by plating 5 μL of broth culture from the MIC assay onto Müller-Hinton agar (BD Biosciences) supplemented with 10% FBS. After 72 h, the lowest concentration at which colonies were not observed was reported as the MBC.

[7] = test system: H. pylori (strain 60190) adhered to AGS cells; assay: Adhesion of H. pylori to AGS cells; format: cell-based, Helicobacter pylori; conditions: 0.1 μg/mL (10×MIC)
Procedure: as §1

[8] = Helicobacter pylori, H. pylori strain 60190, read-out: MBC

In the case of `CC1(C)S[C@@H]2[C@H](NC(=O)[C@H](N)c3ccc(O)cc3)C(=O)N2[C@H]1C(=O)O` [Amoxicillin, amoxicillin], the MIC (H. Pylori 43504) is reported as 0.03 µg/mL (≈ 0.0821 µM), the “morphology by SEM” value (H. pylori bacteria; 0.1 μg/mL (10×MIC)) is reported as “morphological changes and decreased cell size” and the MIC (H. Pylori 49503) is reported as 10 ng/mL (≈ 0.0274 µM). The “effect on IL-8 secretion” value [1] was “inhibited IL-8 secretion”, the MIC (H. Pylori 51932) was 10 ng/mL (≈ 0.0274 µM) and the MIC [2] was 0.01 µg/mL. The “effect on intracellular bacteria” value [3] was “eliminated bacteria completely”, the MBC (H. pylori strain 60190; [8]) was 0.5 µg/mL (≈ 1.37 µM) and the “FICI value Niclosamide” value (H. pylori (strain 60190) [4]) was 2.0. The “change in MIC through at least 10 passages” value [5] was 2 fold, the “increase in MIC during continuous passage” value [5] was 2 fold and the “change of MIC at acidic pH compared to pH 7.0” value (H. pylori (strain 60190) [6]) was “increased”. For the same compound, the “effect on bacterial adhesion” value [7] was “eliminated bacterial adhesion completely”.
In the case of `N#CC(C#N)=NNc1cccc(Cl)c1` [CCCP, carbonyl cyanide m-chlorophenylhydrazone], the “morphology by SEM” value (H. pylori bacteria; 10 μM) is reported as “morphological changes and decreased cell size”.
`CC[C@H]1OC(=O)[C@H](C)[C@@H](O[C@H]2C[C@@](C)(OC)[C@@H](O)[C@H](C)O2)[C@H](C)[C@@H](O[C@@H]2O[C@H](C)C[C@H](N(C)C)[C@H]2O)[C@](C)(OC)C[C@@H](C)C(=O)[C@H](C)[C@@H](O)[C@]1(C)O` [Clarithromycin, clarithromycin] showed an MIC (H. Pylori 43504) of 0.005 µg/mL (≈ 0.00668 µM), an MIC (H. Pylori 49503) of 2.5 ng/mL (≈ 0.00334 µM) and an MIC (H. Pylori 51932) of 5 ng/mL (≈ 0.00668 µM). The MIC [2] was 0.0025 µg/mL, the MBC (H. pylori strain 60190; [8]) was 0.25 µg/mL (≈ 0.334 µM) and the “FICI value Niclosamide” value (H. pylori (strain 60190) [4]) was 1.0. For the same compound, the “change in MIC through at least 10 passages” value [5] was 2 fold, the “exposure time after which MIC increased” value ([5]; continuous exposure, 30 day study) was greater than 24 days and the “increase in MIC during continuous passage” value [5] was 4 fold. For the same compound, the “change of MIC at acidic pH compared to pH 7.0” value (H. pylori (strain 60190) [6]) was “increased”.
`Cc1cc(C(C#N)c2ccc(Cl)cc2)c(Cl)cc1NC(=O)c1cc(I)cc(I)c1O` (stereo not shown) [Closantel, closantel] gave an MIC [2] of 16 µg/mL, an MBC (H. pylori strain 60190; H. pylori strain 60190) of 16.0 µg/mL (≈ 24.1 µM) and an MBC (H. pylori strain 60190; [8]) of 16 µg/mL (≈ 24.1 µM).
In the case of `Cc1ncc([N+](=O)[O-])n1CCO` [Metronidazole, metronidazole], the interaction with niclosamide (H. pylori (strain 60190) [4]; combination with niclosamide) is reported as “partially synergistic” and the “FICI value Niclosamide” value (H. pylori (strain 60190) [4]) is reported as 0.75.
For `COc1ccc2[nH]c([S+]([O-])Cc3ncc(C)c(OC)c3C)nc2c1` (stereo not shown) [Omeprazole, omeprazole], the “FICI value Niclosamide” value (H. pylori (strain 60190) [4]) was 0.625.
Compound `O=C(Nc1cc(Cl)cc(Cl)c1O)c1c(O)c(Cl)cc(Cl)c1Cl` [Oxyclozanide, oxyclozanide] has an MIC [2] of 2 µg/mL and an MBC (H. pylori strain 60190; [8]) of 4 µg/mL (≈ 9.96 µM).
With `COc1ccnc(C[S+]([O-])c2nc3ccc(OC(F)F)cc3[nH]2)c1OC` (stereo not shown) [Pantoprazole, pantoprazole] the “FICI value Niclosamide” value (H. pylori (strain 60190) [4]) was 0.75.
`O=C(Nc1ccc(Oc2ccc(Cl)cc2)c(Cl)c1)c1cc(I)cc(I)c1O` [Rafoxanide, rafoxanide] was tested, and the MBC (H. pylori strain 60190; Helicobacter pylori, 60190) was 8 µg/mL (≈ 12.8 µM).
